Activity data for four compounds are collected here from ChEMBL document CHEMBL3044734, “Major secondary metabolites produced by two commercial Trichoderma strains active against different phytopathogens” (2006).

Common to all, as to format: functional
For assay [1], the system named is Rhizoctonia solani. The assay is described as follows: Antimicrobial activity against Rhizoctonia solani assessed as colony diameter at 0.1 ug/plug after 3 days ( Rvb = 2.95 +/- 0.11 cm).
Assay [2] concerns Gaeumannomyces tritici. The assay is described as follows: Antimicrobial activity against Gaeumannomyces graminis var. tritici assessed as colony diameter at 0.1 ug/plug after 3 days ( Rvb = 1.40+/- 0.8 cm).
In assay [3] the test system is Gaeumannomyces tritici. Nature of the assay: Antimicrobial activity against Gaeumannomyces graminis var. tritici assessed as colony diameter at 1 ug/plug after 3 days ( Rvb = 1.40+/- 0.8 cm).
Assay [4] relates to Globisporangium ultimum. Nature of the assay: Antimicrobial activity against Pythium ultimum assessed as colony diameter at 0.01 ug/plug after 3 days ( Rvb = 8.50 cm).
The test system of assay [5] is Gaeumannomyces tritici. Nature of the assay: Antimicrobial activity against Gaeumannomyces graminis var. tritici assessed as colony diameter at 100 ug/plug after 3 days ( Rvb = 1.40+/- 0.8 cm).
In assay [6] the test system is Rhizoctonia solani. Nature of the assay: Antimicrobial activity against Rhizoctonia solani assessed as colony diameter at 100 ug/plug after 3 days ( Rvb = 2.95 +/- 0.11 cm).
Assay [7] deals with Gaeumannomyces tritici. Nature of the assay: Antimicrobial activity against Gaeumannomyces graminis var. tritici assessed as colony diameter at 0.01 ug/plug after 3 days ( Rvb = 1.40+/- 0.8 cm).
In assay [8] the test system is Rhizoctonia solani. Nature of the assay: Antimicrobial activity against Rhizoctonia solani assessed as colony diameter at 10 ug/plug after 3 days ( Rvb = 2.95 +/- 0.11 cm).
Assay [9] concerns Gaeumannomyces tritici. Nature of the assay: Antimicrobial activity against Gaeumannomyces graminis var. tritici assessed as colony diameter at 200 ug/plug after 3 days ( Rvb = 1.40+/- 0.8 cm).
Assay [10] has as its system Rhizoctonia solani. Nature of the assay: Antimicrobial activity against Rhizoctonia solani assessed as colony diameter at 1 ug/plug after 3 days ( Rvb = 2.95 +/- 0.11 cm).
The test system of assay [11] is Rhizoctonia solani. Nature of the assay: Antimicrobial activity against Rhizoctonia solani assessed as colony diameter at 200 ug/plug after 3 days ( Rvb = 2.95 +/- 0.11 cm).
The subject of assay [12] is Globisporangium ultimum. The assay is described as follows: Antimicrobial activity against Pythium ultimum assessed as colony diameter at 0.1 ug/plug after 3 days ( Rvb = 8.50 cm).
Assay [13] relates to Globisporangium ultimum. Nature of the assay: Antimicrobial activity against Pythium ultimum assessed as colony diameter at 100 ug/plug after 3 days ( Rvb = 8.50 cm).
The test system of assay [14] is Globisporangium ultimum. Nature of the assay: Antimicrobial activity against Pythium ultimum assessed as colony diameter at 10 ug/plug after 3 days ( Rvb = 8.50 cm).
Assay [15] relates to Gaeumannomyces tritici. Nature of the assay: Antimicrobial activity against Gaeumannomyces graminis var. tritici assessed as colony diameter at 10 ug/plug after 3 days ( Rvb = 1.40+/- 0.8 cm).
Assay [16] has as its system Rhizoctonia solani. The assay is described as follows: Antimicrobial activity against Rhizoctonia solani assessed as colony diameter at 0.01 ug/plug after 3 days ( Rvb = 2.95 +/- 0.11 cm).
Assay [17] concerns Globisporangium ultimum. Nature of the assay: Antimicrobial activity against Pythium ultimum assessed as colony diameter at 1 ug/plug after 3 days ( Rvb = 8.50 cm).
Assay [18] concerns Globisporangium ultimum. Nature of the assay: Antimicrobial activity against Pythium ultimum assessed as colony diameter at 200 ug/plug after 3 days ( Rvb = 8.50 cm).

For `C/C=C/C=C/CC1=C(CC(C)=O)C(=O)OC1` [T39BUTENOLIDE], the Activity is 2.5 cm in the assay with Rhizoctonia solani [1]; 1.13 cm in the assay on Gaeumannomyces tritici [2]; 1.1 cm in the assay with Gaeumannomyces tritici [3]; 8.5 cm with Globisporangium ultimum [4]; 0 cm in the assay on Gaeumannomyces tritici [5]; 0 cm with Rhizoctonia solani [6]. Also, the Activity is recorded as 1.2 cm in the assay with Gaeumannomyces tritici [7]; 2.13 cm with Rhizoctonia solani [8]; 0 cm in the assay with Gaeumannomyces tritici [9]; 2.4 cm in the assay on Rhizoctonia solani [10]; 0 cm with Rhizoctonia solani [11]; 8.5 cm in the assay on Globisporangium ultimum [12]. In addition, the Activity was 8.05 cm with Globisporangium ultimum [13]; 8.5 cm in the assay with Globisporangium ultimum [14]; 1.23 cm with Gaeumannomyces tritici [15]; 2.73 cm with Rhizoctonia solani [16]; 8.5 cm in the assay on Globisporangium ultimum [17]; 6.35 cm in the assay on Globisporangium ultimum [18].
In the case of `C/C=C/C=C/C1=CC2=CC(=O)[C@](C)(OC(=O)[C@H](C)O)C(=O)C2=CO1` [T22AZAPHILONE], the Activity with Rhizoctonia solani [1] was 2.83 cm; in the assay with Gaeumannomyces tritici [2] it was 1.13 cm; with Gaeumannomyces tritici [3] it was 0 cm; in the assay on Globisporangium ultimum [4], 8.5 cm; with Gaeumannomyces tritici [5], 0 cm; in the assay with Rhizoctonia solani [6] it was 0 cm. Besides, the Activity in the assay on Gaeumannomyces tritici [7] was 1.18 cm; with Rhizoctonia solani [8] it was 0 cm; with Rhizoctonia solani [10] it was 1.9 cm; in the assay with Globisporangium ultimum [12] it was 8.5 cm; in the assay on Globisporangium ultimum [13], 0 cm; in the assay on Globisporangium ultimum [14], 5.2 cm. Further, the Activity with Gaeumannomyces tritici [15] came out at 0 cm; with Rhizoctonia solani [16] it was 2.9 cm; in the assay with Globisporangium ultimum [17], 8.3 cm.
Consider `C/C=C/CC(C)C(=O)c1c(O)c(OC)c(OC)[nH]c1=O` (stereo unspecified) [HARZIANOPYRIDONE], for which the Activity with Rhizoctonia solani [1] worked out at 2.53 cm; in the assay with Gaeumannomyces tritici [2], 0.7 cm; in the assay with Gaeumannomyces tritici [3], 0 cm; in the assay on Globisporangium ultimum [4] it was 8.5 cm; in the assay with Gaeumannomyces tritici [5], 0 cm; in the assay with Rhizoctonia solani [6] it was 0 cm. Further, the Activity is 0.98 cm with Gaeumannomyces tritici [7]; 0 cm with Rhizoctonia solani [8]; 1.2 cm in the assay with Rhizoctonia solani [10]; 8.5 cm in the assay on Globisporangium ultimum [12]; 7.9 cm with Globisporangium ultimum [13]; 8.5 cm in the assay on Globisporangium ultimum [14]. Further, the Activity with Gaeumannomyces tritici [15] is reported as 0 cm; in the assay with Rhizoctonia solani [16] it was 2.73 cm; with Globisporangium ultimum [17], 8.5 cm.
In the case of `C/C=C/C=C/CC1=C(CC(C)O)C(=O)OC1` (stereo unspecified) [HARZIANOLIDE], the Activity with Rhizoctonia solani [1] was 2.83 cm; with Gaeumannomyces tritici [2] it was 1.25 cm; in the assay on Gaeumannomyces tritici [3], 1.43 cm; in the assay on Globisporangium ultimum [4] it was 8.5 cm; in the assay on Gaeumannomyces tritici [5], 1.25 cm; with Rhizoctonia solani [6], 2.7 cm. The Activity with Gaeumannomyces tritici [7] is on record as 1.05 cm; in the assay with Rhizoctonia solani [8], 3.05 cm; in the assay with Gaeumannomyces tritici [9], 0.7 cm; in the assay on Rhizoctonia solani [10], 2.5 cm; in the assay on Rhizoctonia solani [11], 2.35 cm; in the assay on Globisporangium ultimum [12], 8.5 cm. Also, the Activity is listed as 8.5 cm in the assay on Globisporangium ultimum [13]; 8.5 cm with Globisporangium ultimum [14]; 1.1 cm with Gaeumannomyces tritici [15]; 2.8 cm with Rhizoctonia solani [16]; 8.5 cm with Globisporangium ultimum [17]; 7.6 cm in the assay on Globisporangium ultimum [18].
